According to ChEMBL document CHEMBL1955803, “Preclinical in vivo evaluation of efficacy, pharmacokinetics, and pharmacodynamics of a novel MEK1/2 kinase inhibitor RO5068760 in multiple tumor models” (Mol Cancer Ther, 2010):
Activity calls are given as the source filed them. The calls are words filed in the database; no cut-off is given here.

What was measured:
[1] = Plasma concentration in human LOX cells expressing B-Raf V600E mutant xenografted nude mouse at 100 mg/kg, po after 8 hrs; assay type: ADME, organism-based; set-up: dose 100 mg/kg, route oral
[2] = Drug level in human LOX cells expressing B-Raf V600E mutant xenografted nude mouse tumor at 100 mg/kg, po after 8 hrs; assay type: ADME, organism-based, Neoplasm; set-up: dose 100 mg/kg, route oral; settings: read-out: Drug uptake
[3] = biological target: T1, Dual specificity mitogen-activated protein kinase kinase 1 (Homo sapiens, UniProt Q02750); assay: Inhibition of MEK1 in human LOX cells assessed as inhibition of ERK phosphorylation by Western blot analysis; assay type: cell-based
T1 sequence (Q02750 whole entry): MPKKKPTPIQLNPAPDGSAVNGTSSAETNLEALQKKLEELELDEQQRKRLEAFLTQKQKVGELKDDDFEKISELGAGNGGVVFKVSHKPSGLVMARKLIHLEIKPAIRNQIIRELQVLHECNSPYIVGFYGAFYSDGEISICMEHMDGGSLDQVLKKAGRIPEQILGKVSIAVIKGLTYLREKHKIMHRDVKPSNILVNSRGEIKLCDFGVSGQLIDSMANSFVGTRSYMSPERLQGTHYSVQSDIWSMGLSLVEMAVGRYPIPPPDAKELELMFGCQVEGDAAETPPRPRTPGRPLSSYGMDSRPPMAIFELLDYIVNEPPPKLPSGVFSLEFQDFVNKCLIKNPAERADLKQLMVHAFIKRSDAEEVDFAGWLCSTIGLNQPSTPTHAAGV

Mus musculus [4] = assay: Inhibition of MEK-mediated ERK phosphorylation in po dosed human HT-29 cells expressing B-Raf V600E mutant xenografted nude mouse tumor by Western blot analysis; assay type: functional, organism-based
[5] = Plasma concentration in human HT-29 cells expressing B-Raf V600E mutant xenografted nude mouse at 50 mg/kg, po after 4 hrs; assay type: ADME, organism-based; set-up: dose 50 mg/kg, route oral
NCI-H460 [6] = assay: Antitumor activity against human H460 cells expressing K-Ras Q61H mutant xenografted in nude mouse assessed as tumor growth inhibition at 50 mg/kg, po bid; assay type: functional; settings: read-out: GI
[7] = Plasma concentration in human HT-29 cells expressing B-Raf V600E mutant xenografted nude mouse at 100 mg/kg, po after 4 hrs; assay type: ADME, organism-based; set-up: dose 100 mg/kg, route oral
[8] = biological target: T1, Dual specificity mitogen-activated protein kinase kinase 1; assay: Inhibition of MEK1 in human MIA PaCa-2 cells assessed as inhibition of ERK phosphorylation by Western blot analysis; assay type: cell-based
[9] = AUC (0 to 12 hrs) in human MIAPaCa2 cells expressing K-Ras G12C mutant xenografted nude mouse at 100 mg/kg, po bid; assay type: ADME, organism-based, MIA PaCa-2; set-up: time < 12 hr, dose 100 mg/kg, route oral; settings: in vivo
Mus musculus [10] = assay: Toxicity in human H460 cells expressing K-Ras Q61H mutant xenografted nude mouse assessed as gross signs of adverse effect at 25 to 200 mg/kg, po bid for 3 weeks; assay type: organism-based; set-up: dose 25-200 mg/kg, route oral; settings: in vivo, 504 h
[11] = AUC (0 to 12 hrs) in human H460 cells expressing K-Ras Q61H mutant xenografted nude mouse at 100 mg/kg, po bid; assay type: ADME, organism-based; set-up: time < 12 hr, dose 100 mg/kg, route oral; settings: in vivo
HT-29 = assay: Antitumor activity against human HT-29 cells expressing B-Raf V600E mutant xenografted in nude mouse assessed as tumor growth inhibition at 100 mg/kg, po bid; assay type: functional; settings: read-out: GI
[12] = Drug level in human HT-29 cells expressing B-Raf V600E mutant xenografted nude mouse tumor at 100 mg/kg, po after 8 hrs; assay type: ADME, organism-based, Neoplasm; set-up: dose 100 mg/kg, route oral; settings: read-out: Drug uptake
[13] = AUC (0 to 12 hrs) in human H460 cells expressing K-Ras Q61H mutant xenografted nude mouse at 25 mg/kg, po bid; assay type: ADME, organism-based; set-up: time < 12 hr, dose 25 mg/kg, route oral; settings: in vivo
[14] = Plasma concentration in human HT-29 cells expressing B-Raf V600E mutant xenografted nude mouse at 50 mg/kg, po after 8 hrs; assay type: ADME, organism-based; set-up: dose 50 mg/kg, route oral
[15] = Plasma concentration in human HT-29 cells expressing B-Raf V600E mutant xenografted nude mouse at 100 mg/kg, po after 8 hrs; assay type: ADME, organism-based; set-up: dose 100 mg/kg, route oral
Mus musculus [16] = assay: Inhibition of MEK-mediated ERK phosphorylation in tumor of human HT-29 cells expressing B-Raf V600E mutant xenografted nude mouse at 50 mg/kg, po after 4 hrs by Western blot analysis relative to control; assay type: functional; settings: HT-29, 4 h
[17] = Plasma concentration in human LOX cells expressing B-Raf V600E mutant xenografted nude mouse at 100 mg/kg, po after 12 hrs; assay type: ADME, organism-based; set-up: dose 100 mg/kg, route oral
Mus musculus [18] = assay: Average drug concentration in human LOX cells expressing B-Raf V600E mutant xenografted nude mouse plasma at 25 mg/kg, po bid; assay type: ADME, organism-based; set-up: dose 25 mg/kg, route oral; settings: in vivo
Mus musculus [19] = assay: Average drug concentration in human MIAPaCa2 cells expressing K-Ras G12C mutant xenografted nude mouse plasma at 50 mg/kg, po bid; assay type: ADME, organism-based, MIA PaCa-2; set-up: dose 50 mg/kg, route oral; settings: in vivo
Mus musculus [20] = assay: Average drug concentration in human MIAPaCa2 cells expressing K-Ras G12C mutant xenografted nude mouse plasma at 25 mg/kg, po bid; assay type: ADME, organism-based, MIA PaCa-2; set-up: dose 25 mg/kg, route oral; settings: in vivo
Mus musculus [21] = assay: Inhibition of MEK-mediated ERK phosphorylation in tumor of human LOX cells expressing B-Raf V600E mutant xenografted nude mouse at 100 mg/kg, po after 2 hrs by Western blot analysis relative to control; assay type: functional
[22] = Plasma concentration in human HT-29 cells expressing B-Raf V600E mutant xenografted nude mouse at 100 mg/kg, po after 2 hrs; assay type: ADME, organism-based; set-up: dose 100 mg/kg, route oral
[23] = biological target: T1, Dual specificity mitogen-activated protein kinase kinase 1; assay: Inhibition of MEK1 in human H460 cells assessed as inhibition of ERK phosphorylation by Western blot analysis; assay type: cell-based
Mus musculus [24] = assay: Inhibition of MEK-mediated ERK phosphorylation in po dosed human LOX cells expressing B-Raf V600E mutant xenografted nude mouse plasma by Western blot analysis; assay type: functional, organism-based
MIA PaCa-2 = assay: Antitumor activity against human MIAPaCa2 cells expressing K-Ras G12C mutant xenografted in nude mouse assessed as tumor growth inhibition at 100 mg/kg, po bid; assay type: functional; settings: read-out: GI
[25] = Cmax in human H460 cells expressing K-Ras Q61H mutant xenografted nude mouse at 100 mg/kg, po bid; assay type: ADME, organism-based; set-up: dose 100 mg/kg, route oral; settings: in vivo
[26] = Antitumor activity against human LOX cells expressing B-Raf V600E mutant xenografted in nude mouse assessed as tumor growth inhibition at 6.25 mg/kg, po bid; assay type: functional; settings: read-out: GI
NCI-H460 [27] = assay: Growth inhibition of human […] mutant by MTT assay; assay type: functional, cell-based
[28] = Drug level in human HT-29 cells expressing B-Raf V600E mutant xenografted nude mouse tumor at 50 mg/kg, po after 12 hrs; assay type: ADME, organism-based, Neoplasm; set-up: dose 50 mg/kg, route oral; settings: read-out: Drug uptake
[29] = AUC (0 to 12 hrs) in human MIAPaCa2 cells expressing K-Ras G12C mutant xenografted nude mouse at 50 mg/kg, po bid; assay type: ADME, organism-based, MIA PaCa-2; set-up: time < 12 hr, dose 50 mg/kg, route oral; settings: in vivo
[30] = AUC (0 to 24 hrs) in human MIAPaCa2 cells expressing K-Ras G12C mutant xenografted nude mouse at 200 mg/kg, po qd; assay type: ADME, organism-based, MIA PaCa-2; set-up: time < 24 hr, dose 200 mg/kg, route oral; settings: in vivo
[31] = biological target: Dual specificity mitogen-activated protein kinase kinase; MEK1/2 (Homo sapiens) (UniProt P36507+Q02750); settings: LOX, 2 to 10 uM
Dual specificity mitogen-activated protein kinase kinase; MEK1/2 (Homo sapiens), sequence (P36507 whole entry, looked up): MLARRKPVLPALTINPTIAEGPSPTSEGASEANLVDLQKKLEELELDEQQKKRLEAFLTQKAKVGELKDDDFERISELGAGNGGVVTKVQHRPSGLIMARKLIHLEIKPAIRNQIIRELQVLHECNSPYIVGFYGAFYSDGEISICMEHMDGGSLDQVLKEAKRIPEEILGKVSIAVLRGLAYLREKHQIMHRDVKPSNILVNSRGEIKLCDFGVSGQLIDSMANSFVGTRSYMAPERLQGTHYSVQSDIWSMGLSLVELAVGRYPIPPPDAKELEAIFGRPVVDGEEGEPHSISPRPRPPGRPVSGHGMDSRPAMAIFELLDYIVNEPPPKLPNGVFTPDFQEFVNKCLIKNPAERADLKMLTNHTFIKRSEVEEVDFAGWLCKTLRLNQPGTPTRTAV
Dual specificity mitogen-activated protein kinase kinase; MEK1/2 (Homo sapiens), sequence (Q02750 whole entry, looked up): as the sequence (Q02750 whole entry) above
Description: Inhibition of MEK1/2 in human LOX cells assessed as upregulation of p27 expression at 2 to 10 uM by Western blot analysis

[32] = Cmax in human MIAPaCa2 cells expressing K-Ras G12C mutant xenografted nude mouse at 100 mg/kg, po bid; assay type: ADME, organism-based, MIA PaCa-2; set-up: dose 100 mg/kg, route oral; settings: in vivo
Mus musculus [33] = assay: Average drug concentration in human MIAPaCa2 cells expressing K-Ras G12C mutant xenografted nude mouse plasma at 100 mg/kg, po bid; assay type: ADME, organism-based, MIA PaCa-2; set-up: dose 100 mg/kg, route oral; settings: in vivo
[34] = Drug level in human HT-29 cells expressing B-Raf V600E mutant xenografted nude mouse tumor at 50 mg/kg, po after 8 hrs; assay type: ADME, organism-based, Neoplasm; set-up: dose 50 mg/kg, route oral; settings: read-out: Drug uptake
Mus musculus [35] = assay: Average drug concentration in human HT-29 cells expressing B-Raf V600E mutant xenografted nude mouse plasma at 100 mg/kg, po bid; assay type: ADME, organism-based; set-up: dose 100 mg/kg, route oral; settings: in vivo
[36] = Drug level in human LOX cells expressing B-Raf V600E mutant xenografted nude mouse tumor at 100 mg/kg, po after 2 hrs; assay type: ADME, organism-based, Neoplasm; set-up: dose 100 mg/kg, route oral; settings: read-out: Drug uptake
NCI-H460 [37] = assay: Antitumor activity against human H460 cells expressing K-Ras Q61H mutant xenografted in nude mouse assessed as tumor growth inhibition at 200 mg/kg, po bid; assay type: functional; settings: read-out: GI

In the case of `C[C@@H](c1ccccc1)[C@@H](C(=O)Nc1ccc(I)cc1F)N1C(=O)N[C@H](c2ccc(OC[C@H](O)CO)cc2)C1=O`, the concentration at 8 h [1] is reported as 1410 ng/mL, the concentration at 8 h [2] is reported as 1160 ng/g and the IC50 [3] is reported as 22 nM. The EC50 (Mus musculus [4]) was 1001 ng/g, the concentration at 4 h [5] was 4030 ng/mL and the inhibition in vivo at 50 mg/kg (NCI-H460 [6]) was 83%. It also gave a concentration at 4 h [7] of 6030 ng/mL, an IC50 [8] of 69 nM and an AUC at 12 h [9] of 32700 ng·h/mL. For the same compound, the Activity (Mus musculus [10]) was “Non-toxic”, the AUC at 12 h [11] was 62900 ng·h/mL and the inhibition in vivo at 100 mg/kg (HT-29) was 95%. It also gave a concentration at 8 h [12] of 293 ng/g, an AUC at 12 h [13] of 8800 ng·h/mL and a concentration at 8 h [14] of 1260 ng/mL. It also gave a concentration at 8 h [15] of 741 ng/mL, an inhibition in vivo at 50 mg/kg (Mus musculus [16]) of 81% and a concentration at 12 h [17] of 72 ng/mL. It also gave a Cave (Mus musculus [18]) of 833 ng/mL, a Cave (Mus musculus [19]) of 1567 ng/mL and a Cave (Mus musculus [20]) of 1058 ng/mL. The inhibition in vivo at 100 mg/kg (Mus musculus [21]) was 86%, the concentration at 2 h [22] was 9360 ng/mL and the IC50 [23] was 82 nM. For the same compound, the EC50 (Mus musculus [24]) was 1360 nM, the inhibition in vivo at 100 mg/kg (MIA PaCa-2) was over 100% and the Cmax [25] was 16900 ng/mL. For the same compound, the inhibition in vivo at 6.25 mg/kg [26] was 61%, the IC50 (NCI-H460 [27]) was 300 nM and the IC90 (NCI-H460 [27]) was 3080 nM. For the same compound, the concentration at 12 h [28] was 188 ng/g, the AUC at 12 h [29] was 18800 ng·h/mL and the AUC at 24 h [30] was 66200 ng·h/mL. For the same compound, the inhibition [31] was “Active”, the Cmax [32] was 9650 ng/mL and the Cave (Mus musculus [33]) was 2725 ng/mL. It also gave a concentration at 8 h [34] of 906 ng/g, a Cave (Mus musculus [35]) of 1530 ng/mL and a concentration at 2 h [36] of 3040 ng/g. It also gave an inhibition in vivo at 200 mg/kg (NCI-H460 [37]) of 80%.
